Assay results as given in US8314089B2, “Substituted pyrazolamides and their use” (AiCuris GmbH & Co. KG, priority 2008, dated 2012).

Each molecule was assayed on HIV (assay: HIV infection in cell culture (H9 cells, 2% FCS)). Conditions: Human immunodeficiency virus 1, HIV-infected H9 cells, suppression of 50% of virus-induced syncytia.
Assay type: cell-based
Description: The HIV test is conducted according to the method of Pauswels et al. [cf. Journal of Virological Methods 1988, 20, 309-321], with modifications.
Primary human blood lymphocytes (PBLs) are enriched using Ficoll-Hypaque and stimulated, in RPMI 1640 medium, 20% fetal calf serum, with phytohemagglutinin (90 μg/ml) and interleukin-2 (40 U/ml). For the infection with the infectious HIV, the PBLs are pelletted and the cell pellet is subsequently suspended in 1 ml of a suitable diluted HIV virus adsorption solution and incubated for 1 hour at 37° C. (pellet infection). Unabsorbed virus is subsequently removed by centrifugation, and the infected cells are transferred to test plates (e.g. 96-well microtiter plates), which contain the test substances in a suitable dilution.
Alternatively, for example HIV-susceptible, permanent H9 cells (ATCC or NIAID, USA) are used instead of normal human blood lymphocytes for testing the antiviral effects of the compounds of the invention. Infected H9 cells are grown for test purposes in RPMI 1640 medium, 2% and/or 20% fetal calf serum.
The virus adsorption solution is centrifuged and the infected cell pellet is taken up in growth medium, so as to give 1×10^5 cells per ml. The cells infected in this way are pipetted at approx. 1×10^4 cells/well into the wells of 96-well microtiter plates (pellet infection). Alternatively the HIV is pipetted in separately only after preparation of the substance dilutions in the microtiter plates and after addition of the cells (supernatant infection).
The first vertical row of the microtiter plate contains only growth medium and cells that are not infected, but are otherwise treated exactly as described above (cell control). The second vertical row of the microtiter plate receives only HIV-infected cells (virus control) in growth medium. The other wells contain the compounds of the invention in various concentrations, starting from the wells of the 3rd vertical row of the microtiter plate, from which the test substances are diluted 2^10-fold in 2-fold steps.
Alternatively, supernatant infections are carried out (see above), in which the cells are sown in 96-well plates. The HIV virus is then added in a volume of 50 μl.
The test preparations are incubated at 37° C., until the formation of syncytia that is typical of HIV occurs in the untreated virus control (between day 3 and 6 after infection), which is then evaluated either microscopically or by p24 ELISA detection methods (Vironostika, BioMerieux, The Netherlands) or photometrically or fluorometrically using Alamar Blue indicator dye.
The IC50 values are determined as the concentration of the test substance at which 50% (approx. 20-100 syncytia) of the virus-induced syncytia are suppressed by the treatment with the compound of the invention. The cut-off values are set correspondingly in the ELISA test and in the photometric or fluorometric determination using Alamar Blue. In addition to determination of the antiviral effects, the treated cell cultures are also investigated microscopically with respect to cytotoxic, cytostatic or cytological changes and with respect to solubility. Active compounds that show cell-altering, cytotoxic findings in the concentration range of the activity are not assessed for their antiviral activity.

| SMILES | IC50 |
| --- | --- |
| O=CN1CCN(C(=O)c2cc(-c3cccc(SC(F)(F)F)c3)n(-c3cccc(Cl)c3)n2)CC1 [Example 15, 4-{[1-(3-Chlorophenyl)-5-(3-trifluoromethylthiophenyl)-1H-pyrazol-3-yl]carbonyl}-piperazine-1-carbaldehyde] | 0.15 µM |
| N#Cc1cccc(-c2cc(C(=O)N3CCOCC3)nn2-c2cccc(Cl)c2)c1 [Example 32] | 0.04 µM |
| O=C(c1cc(-c2ccccc2)n(-c2cccc(Cl)c2)n1)N1CCOCC1 [Example 33] | 0.05 µM |
| O=C(c1cc(-c2ccccc2)n(-c2cccc(Cl)c2)n1)N1CCSC1 [Example 34] | 0.08 µM |
| COc1ccc(-c2cc(C(=O)N3CCOCC3)nn2-c2cccc(Cl)c2)cc1OC [Example 35] | 0.1 µM |

The next lines start with the values.

| IC50 | SMILES |
| --- | --- |
| 0.05 µM | O=C(c1cc(-c2cccc(C(F)(F)F)c2)n(-c2cccc(Cl)c2)n1)N1CCC(O)C1 (centres unmarked) [Example 2] |
| 0.05 µM | O=C(c1cc(-c2cccc(OC(F)(F)F)c2)n(-c2cccc(Cl)c2)n1)N1CCOCC1 [Example 4] |
| 0.04 µM | O=C(c1cc(-c2cccc(OC(F)(F)F)c2)n(-c2cccc(Cl)c2)n1)N1CCCOCC1 [Example 5] |
| 0.1 µM | O=C(c1cc(-c2cccc(OC(F)(F)F)c2)n(-c2cccc(Cl)c2)n1)N1CCSC1 [Example 6] |
| 0.05 µM | O=C(c1cc(-c2cccc(OC(F)(F)F)c2)n(-c2cccc(Cl)c2)n1)N1CC[C@@H](O)C1 [Example 10] |
| 0.1 µM | O=C(c1cc(-c2cccc(C(F)(F)F)c2)n(-c2cccc(Cl)c2)n1)N1CCSC1 [Example 43] |
